In patent US4262128A, “Nitrogen heterocycles” (Burroughs Wellcome Co., priority 1976, dated 1981):

Legend:
[1] = tested on: male normotensive rats Wistar (Charles River) strain; assay: Cardiovascular effects in rats (fall in blood pressure, anaesthetised normotensive rats); assay type: in vivo, rat; conditions: i.v.
Method: Male normotensive rats Wistar (Charles River) strain, (250-350 g) were anesthetised (chloroform) prior to cannulation of the left femoral vein and anaesthesia maintained by intravenous chloralose (60 mg/kg). Pulsatile blood pressure was recorded from the left femoral artery with an electronic transducer (Bell and Howell Type 4-327 L221) and integrated heart rate was measured with a cardiotachometer triggered from the arterial pressure waves.
The test compound was administered as a solution in physiological saline by intravenous injection via the femoral cannula. The responses recorded were allowed to return to the preinjection levels between successive administrations.

[2] = tested on: dogs; assay: Urine volume in dogs, intravenous infusion; assay type: in vivo, dog
[3] = tested on: pentagastrin-induced gastric acid secretion; assay: Pentagastrin-induced gastric acid secretion in rats; assay type: in vivo, rat
[4] = tested on: aspirin-induced gastric ulceration; assay: Aspirin-induced gastric ulceration / lesions in rats; assay type: in vivo, rat; conditions: for reduction of aspirin-induced gastric lesions: general statement, no dose
[5] = tested on: human platelet rich plasma (PRP); assay: Inhibition of ADP-stimulated platelet aggregation (Born aggregometer); assay type: cell-based
Method: Aggregation of platelets in 1 ml. of fresh humam platelet rich plasma (PRP) was monitored in a Born aggregometer.
The compound to be tested was added to the PRP at the desired concentration, and the resulting mixture incubated at 37° C. for 1 minute after which platelet aggregation was stimulated by the addition of adenosine diphosphate (ADP) to a concentration of 5 μM.
The anti-aggregatory effect of the compound was assessed by measuring the percentage inhibition of platelet aggregation in the presence of the compound as compared when it was completely absent.

[6] = tested on: rat; assay: Cardiovascular effects in the rat (blood pressure and heart rate, with and without propranolol or atropine); assay type: in vivo
[7] = tested on: vascular smooth muscle; assay: Relaxation of vascular smooth muscle; conditions: similar to prostaglandin A and E series; general statement
[8] = tested on: electrically-induced arterial thrombosis; assay: Electrically-induced arterial thrombosis in anaesthetised rabbits; assay type: in vivo, rabbit; conditions: intravenous infusion 250 μg/min
[9] = tested on: histamine-induced broncho-constriction; assay: Histamine-induced broncho-constriction; assay type: in vivo, guinea-pig
[10] = Compound 14 (m.p. 96°-98°) 2 mg/kg i.v. with propranolol 3 mg/kg
[11] = Compound 14 (m.p. 96°-98°) 2 mg/kg i.v., no propranolol
[12] = Compound 14 (m.p. 96°-98°) 5 mg/kg i.v. with propranolol 3 mg/kg
[13] = Compound 14 (m.p. 96°-98°) 5 mg/kg i.v., no propranolol

## CCCCCC(O)CCN1C(=O)NC(=O)C1CCCCCCC(=O)O (stereo not shown) [Compound 2, 5-(6-Carboxyhexyl)-1-(3-hydroxyoctyl)hydantoin]
[1]; 10 μg/kg
  Mean fall in blood pressure: 14 mmHg
[1]; 1 mg/kg
  Mean fall in blood pressure: 42 mmHg
[2]
  increase of urine volume: increase urine volume
[3]; general statement, no dose
  inhibition of pentagastrin-induced gastric acid secretion: inhibit pentagastrin-induced gastric acid secretion
[3]; intravenous dose of 30 μg/kg, rats
  inhibition of pentagastrin-induced gastric acid secretion: completely inhibited
[4]
  reduction of aspirin-induced gastric lesions: reduce the formation of aspirin-induced gastric lesions

## O=C(O)CCCCCCC1C(=O)NC(=O)N1CCC(O)C1CCC1 (stereo not shown) [Compound 11 (114°-116°), 5-(6-Carboxyhexyl)-1-(3-hydroxy-3-cyclobutylpropyl)hydantoin]
[5]
  relative potency with respect to PGE1 (inhibition of platelet aggregation): 5.2 ×

## CCCCCCC(O)CCN1C(=O)NC(=O)C1CCCCCCC(=O)O (stereo not shown) [Compound 6, 5-(6-Carboxyhexyl)-1-(3-hydroxynonyl)hydantoin]
[1]; 3 mg/kg
  Mean fall in blood pressure: 40 mmHg

## O=C(O)CCCCCCC1C(=O)NC(=O)N1CCC(O)C1CCCCC1 (stereo not shown) [Compound 14 (m.p. 96°-98°), 5-(6-Carboxyhexyl)-1-(3-hydroxy-3-cyclohexylpropyl)hydantoin]
[5]
  relative potency with respect to PGE1 (inhibition of platelet aggregation): 16 ×
[6]; i.v., in words
  hypotensive effect in the rat: substantial hypotensive effect
  tachycardia accompanying the hypotension: accompanied by tachycardia

## CC(C)(Cc1ccccc1)C(O)CCN1C(=O)NC(=O)C1CCCCCCC(=O)O (stereo not shown) [Example 1, 5-(6-carboxyhexyl)-1-(3-hydroxy-4,4-dimethyl-5-phenylpentyl)-hydantoin]
[7]
  relaxation of vascular smooth muscle: relaxation of vascular smooth muscle

## CCCCCC(O)CCN1C(=O)NC(=O)C1CCCCCCC(=O)O (stereo not shown) [Compound 2 (m.p. 76°-78°), 5-(6-Carboxyhexyl)-1-(3-hydroxyoctyl)hydantoin]
[5]
  relative potency with respect to PGE1 (inhibition of platelet aggregation): 12.5 ×
[8]
  reduction of electrically-induced arterial thrombosis: reduce electrically-induced arterial thrombosis

## O=C(O)CCCCCCC1C(=O)NC(=O)N1CCCCOc1ccccc1 (stereo not shown) [Example 79b, 5-(6-carboxyhexyl)-1-(4-phenoxybutyl)hydantoin]
[3]; general statement, no dose
  inhibition of pentagastrin-induced gastric acid secretion: inhibit pentagastrin-induced gastric acid secretion
[4]
  reduction of aspirin-induced gastric lesions: reduce the formation of aspirin-induced gastric lesions

## CC(C)(C)C(O)CCN1C(=O)NC(=O)C1CCCCCCC(=O)O (stereo not shown) [Compound 4 (m.p. 144°-146°), 5-(6-Carboxyhexyl)-1-(3-hydroxy-4,4-dimethylpentyl)hydantoin]
[5]
  relative potency with respect to PGE1 (inhibition of platelet aggregation): 0.05 ×

## O=C(O)CCCCCCC1C(=O)NC(=O)N1CCC(O)C1CCCCC1 (stereo not shown) [Compound 14, 5-(6-Carboxyhexyl)-1-(3-hydroxy-3-cyclohexylpropyl)hydantoin]
[6]; [10]
  Mean fall b.p. (±SD): 28 ± 5
  Mean rise hrt.rate (±S.D): 6.5 ± 3
[6]; [11]
  Mean fall b.p. (±SD): 28 ± 6.5
  Mean rise hrt.rate (±S.D): 44 ± 7
[6]; [12]
  Mean fall b.p. (±SD): 27 ± 7.5
  Mean rise hrt.rate (±S.D): 11.5 ± 2.5
[6]; [13]
  Mean fall b.p. (±SD): 34 ± 3
  Mean rise hrt.rate (±S.D): 47.5 ± 2.5

## CCCCC[C@H](O)/C=C/[C@H]1[C@H](O)CC(=O)[C@@H]1CCCCCCC(=O)O [PGE1, reference compound]
[5]; Homo sapiens, Platelet, 15 ng/ml, ADP 5 μM
  inhibition at 0.015 µg/mL: 33%
[5]; Homo sapiens, Platelet, 20 ng/ml, ADP 5 μM
  inhibition at 0.02 µg/mL: 47%
[5]; Homo sapiens, Platelet, 30 ng/ml, ADP 5 μM
  inhibition at 0.03 µg/mL: 63%
[5]; Homo sapiens, Platelet, 40 ng/ml, ADP 5 μM
  inhibition at 0.04 µg/mL: 69%

## CN1[C@@H]2CC[C@H]1C[C@@H](OC(=O)C(CO)c1ccccc1)C2 (stereo partly shown) [atropine, reference compound]
[6]; atropine 2 mg/kg i.v.
  effect of concurrent atropine on hypotensive effect of Compound 14: did not significantly affect
  effect of concurrent atropine on tachycardiac effect of Compound 14: did not significantly affect

## CCCCC(C)(C)C(O)CCN1C(=O)NC(=O)C1CCCCCCC(=O)O (stereo not shown) [Compound 9, 5-(6-Carboxyhexyl)-1-(3-hydroxy-4,4-dimethyloctyl)hydantoin]
[9]; general statement, no dose
  antagonism of histamine induced broncho-constriction (PGE1-like): mimics the effect of PGE1 of antagonising histamine induced broncho-constriction
[9]; intravenous injection 50 μg/kg, anaesthetised guinea-pigs
  antagonism of histamine-induced broncho-constriction: completely anatagonise
[7]
  relaxation of vascular smooth muscle: relaxation of vascular smooth muscle
[1]; 3 mg/kg
  Mean fall in blood pressure: 22 mmHg

## CCCCCC(=O)CCN1C(=O)NC(=O)C1CCCCCCC(=O)O (stereo not shown) [Example 88, 5-(6-carboxyhexyl)-1-(3-oxooctyl)hydantoin]
[3]; general statement, no dose
  inhibition of pentagastrin-induced gastric acid secretion: inhibit pentagastrin-induced gastric acid secretion
[4]
  reduction of aspirin-induced gastric lesions: reduce the formation of aspirin-induced gastric lesions

## CCCCC[C@H](O)/C=C/[C@H]1[C@H](O)CC(=O)[C@@H]1C/C=C\CCCC(=O)O [PGE2, reference compound]
[1]; 4 μg/kg
  Mean fall in blood pressure: 28 mmHg
[1]; 16 μ/kg
  Mean fall in blood pressure: 44 mmHg

## CCCCCC(=O)CCN1C(=O)N(C)C(=O)C1CCCCCCC(=O)O (stereo not shown) [Compound 90, 5-(6-Carboxyhexyl)-3-methyl-1-(3-oxooctyl)hydantoin]
[3]; general statement, no dose
  inhibition of pentagastrin-induced gastric acid secretion: inhibit pentagastrin-induced gastric acid secretion
[4]
  reduction of aspirin-induced gastric lesions: reduce the formation of aspirin-induced gastric lesions
[4]; oral dose of 1 mg/kg
  protection against aspirin-induced gastric ulceration: 80%

## O=C(O)CCCCCCC1C(=O)NC(=O)N1CCC(O)C1CCCC1 (stereo not shown) [Compound 12 (m.p. 116-117°), 5-(6-Carboxyhexyl)-1-(3-hydroxy-3-cyclopentylpropyl)hydantoin]
[5]; Homo sapiens, Platelet, 0.5 ng/ml, ADP 5 μM
  inhibition at 0.0005 µg/mL: 25%
[5]; Homo sapiens, Platelet, 1.0 ng/ml, ADP 5 μM
  inhibition at 0.001 µg/mL: 51%
[5]; Homo sapiens, Platelet, 2.0 ng/ml, ADP 5 μM
  inhibition at 0.002 µg/mL: 79%
[5]; Homo sapiens, Platelet, 4.0 ng/ml, ADP 5 μM
  inhibition at 0.004 µg/mL: 94%
[5]
  relative potency with respect to PGE1 (inhibition of platelet aggregation): 12.5 ×

## CC(C)NCC(O)COc1cccc2ccccc12 (stereo not shown) [propranolol, reference compound]
[6]; concurrent dose of propranolol
  effect of concurrent propranolol on hypotensive action of Compound 14: without significantly effecting the hypotensive action
  effect of concurrent propranolol on tachycardia caused by Compound 14: considerably reduced the tachycardia
